Measured values: patent publication US12398154B2, “Azaquinazoline pan-KRas inhibitors” (Mirati Therapeutics, Inc., priority 2020, dated 2025)
pIC50: −log10 of the molar value.

Legend:
[1] = system: phospho-ERK in HCT116 (G13D) cells; assay: Inhibition of KRas-mediated phosphorylation of ERK (in-cell western); type: cell-based; conditions: Homo sapiens, HCT-116, 3 hours compound, phospho-ERK normalized to GAPDH
How it was run: (§1)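 Cells were treated with compound for 3 hours (0.5% DMSO final), then fixed with formaldehyde and permeabilized with ice-cold methanol. Phospho-ERK (Thr202/Tyr204) was detected by antibody and normalized to GAPDH per well, expressed as percent of DMSO control, and IC50 obtained by 4-parameter fit.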

[2] = system: phospho-ERK in NCI-H727 (G12V) cells; assay: as above; type: cell-based; conditions: 3 hours compound, phospho-ERK normalized to GAPDH
How it was run: as §1

[3] = system: phospho-ERK in NCI-H358 (G12C) cells; assay: as above; type: cell-based; conditions: Homo sapiens, 3 hours compound, phospho-ERK normalized to GAPDH
How it was run: as §1

[4] = system: phospho-ERK in PSN-1 (G12R) cells; assay: as above; type: cell-based; conditions: Homo sapiens, PSN1, 3 hours compound, phospho-ERK normalized to GAPDH
How it was run: as §1

[5] = system: phospho-ERK in AsPC-1 (G12D) cells; assay: as above; type: cell-based; conditions: 3 hours compound, phospho-ERK normalized to GAPDH
How it was run: as §1

[6] = system: phospho-ERK in NCI-H460 (Q61H) cells; assay: as above; type: cell-based; conditions: 3 hours compound, phospho-ERK normalized to GAPDH
How it was run: as §1

[7] = system: phospho-ERK in MKN1 (WTdep) cells; assay: as above; type: cell-based; conditions: Homo sapiens, MKN-1, 3 hours compound, phospho-ERK normalized to GAPDH
How it was run: as §1

[8] = system: phospho-ERK in A549 (G12S) cells; assay: as above; type: cell-based; conditions: Homo sapiens, 3 hours compound, phospho-ERK normalized to GAPDH
How it was run: as §1

KRas G12R = KRas G12R (Homo sapiens, UniProt P01116, G12R); assay: biochemical;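 further: TR-FRET displacement assay of compound binding to KRas, read after one hour at room temperature, potency from a four-parameter fit of percent-of-control values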
Procedure: (§2) The ability of a compound to bind to KRas was measured using a TR-FRET displacement assay. […] After a 60-minute incubation at room temperature, the reaction was measured using a BMG LABTECH CLARIO star Plus via TR-FRET. […] The POC values were fit to a 4-parameter IC50 equation and the IC50 value reported.

KRas G12V = KRas G12V (Homo sapiens, UniProt P01116, G12V); assay: biochemical;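 further: KRas binding measured by TR-FRET displacement at room temperature, IC50 fitted from percent of control values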
Procedure: as §2

KRas G12D = KRas G12D (Homo sapiens, UniProt P01116, G12D); assay: biochemical;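 further: TR-FRET displacement binding assay on KRas, read after a one-hour incubation at room temperature, IC50 fitted from percent-of-control values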
Procedure: as §2

KRas G12S = KRas G12S (Homo sapiens, UniProt P01116, G12S); assay: biochemical;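 further: TR-FRET displacement binding to KRas, read after one hour incubation at room temperature, IC50 from four-parameter fit of percent of control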
Procedure: as §2

KRas G12C = KRas G12C (Homo sapiens, UniProt P01116, G12C); assay: biochemical;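 further: binding to KRas assessed by TR-FRET displacement after one hour incubation at room temperature, potency fitted from percent-of-control values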
Procedure: as §2

KRas G13D = target: T1, KRas G13D (Homo sapiens, UniProt P01116, G13D); assay: KRas binding assay (TR-FRET displacement);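 further: One-hour room temperature incubation before TR-FRET reading, IC50 from a four-parameter curve fit to percent-of-control data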
T1 construct: Biotinylated KRas (corresponding to amino acids 1-169, produced at Accelegan Inc.); biotin (biotinylated); purchased Accelegan Inc
Procedure: as §2

KRas Q61H = target: T2, KRas Q61H (Homo sapiens, UniProt P01116, Q61H); assay: KRas binding assay (TR-FRET displacement);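 further: TR-FRET signal read after one hour at room temperature, IC50 derived by four-parameter fitting of percent-of-control values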
T2 construct: Biotinylated KRas (corresponding to amino acids 1-169, produced at Accelegan Inc.); biotin (biotinylated); purchased Accelegan Inc
Procedure: as §2

KRas G12A = KRas G12A (Homo sapiens, UniProt P01116, G12A); assay: biochemical;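 further: binding to KRas measured by TR-FRET displacement after one hour at room temperature, IC50 from a four-parameter fit of percent-of-control values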
Procedure: as §2

KRas WT = KRas WT (Homo sapiens, UniProt P01116); assay: biochemical;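 further: binding to KRas read as TR-FRET displacement after a one-hour room-temperature incubation, IC50 derived from percent-of-control values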
Chain of KRas WT (P01116 1-169 isoform P01116-2): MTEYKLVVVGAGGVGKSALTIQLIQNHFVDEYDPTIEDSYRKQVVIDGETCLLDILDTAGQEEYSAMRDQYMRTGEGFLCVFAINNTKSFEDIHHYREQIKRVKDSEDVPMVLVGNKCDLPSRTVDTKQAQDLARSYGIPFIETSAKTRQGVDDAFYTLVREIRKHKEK
Procedure: as §2

Chain of KRas G12V (P01116 1-169 isoform P01116-2 G12V): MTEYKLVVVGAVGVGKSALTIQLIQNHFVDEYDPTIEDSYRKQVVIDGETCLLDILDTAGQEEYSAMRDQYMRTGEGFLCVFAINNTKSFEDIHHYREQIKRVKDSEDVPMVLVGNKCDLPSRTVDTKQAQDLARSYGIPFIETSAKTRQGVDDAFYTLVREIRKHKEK
Chain of KRas G12D (P01116 1-169 isoform P01116-2 G12D): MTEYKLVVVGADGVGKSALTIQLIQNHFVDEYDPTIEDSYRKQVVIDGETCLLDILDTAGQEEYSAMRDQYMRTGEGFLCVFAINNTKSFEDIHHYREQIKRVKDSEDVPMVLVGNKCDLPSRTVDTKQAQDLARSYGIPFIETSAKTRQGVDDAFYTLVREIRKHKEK
Chain of KRas G12R (P01116 1-169 isoform P01116-2 G12R): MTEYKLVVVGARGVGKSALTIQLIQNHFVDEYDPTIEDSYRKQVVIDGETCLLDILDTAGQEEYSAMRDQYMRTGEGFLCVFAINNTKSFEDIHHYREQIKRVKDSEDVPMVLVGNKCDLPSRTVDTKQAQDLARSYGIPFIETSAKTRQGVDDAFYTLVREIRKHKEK
T1 sequence (P01116 1-169 isoform P01116-2 G13D): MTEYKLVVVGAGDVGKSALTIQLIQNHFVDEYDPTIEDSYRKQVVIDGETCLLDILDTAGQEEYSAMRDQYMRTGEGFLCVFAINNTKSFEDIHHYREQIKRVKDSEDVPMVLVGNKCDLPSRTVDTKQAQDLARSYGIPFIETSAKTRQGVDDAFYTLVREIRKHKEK
Chain of KRas G12A (P01116 1-169 isoform P01116-2 G12A): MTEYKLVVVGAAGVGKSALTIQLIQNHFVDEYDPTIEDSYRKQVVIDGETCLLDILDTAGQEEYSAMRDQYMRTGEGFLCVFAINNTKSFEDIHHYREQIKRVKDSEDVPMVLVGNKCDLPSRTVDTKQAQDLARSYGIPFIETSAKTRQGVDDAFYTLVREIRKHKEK
Chain of KRas G12C (P01116 1-169 isoform P01116-2 G12C): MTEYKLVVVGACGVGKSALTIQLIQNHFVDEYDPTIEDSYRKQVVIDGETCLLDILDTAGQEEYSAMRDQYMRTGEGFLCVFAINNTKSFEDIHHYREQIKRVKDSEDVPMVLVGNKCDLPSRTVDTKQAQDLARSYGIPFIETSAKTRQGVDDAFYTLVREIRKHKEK
T2 sequence (P01116 1-169 isoform P01116-2 Q61H): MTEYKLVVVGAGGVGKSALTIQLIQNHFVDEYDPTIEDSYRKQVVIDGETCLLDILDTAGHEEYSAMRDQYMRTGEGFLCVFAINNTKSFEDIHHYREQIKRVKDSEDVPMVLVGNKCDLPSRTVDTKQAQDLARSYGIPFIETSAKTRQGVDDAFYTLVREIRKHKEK
Chain of KRas G12S (P01116 1-169 isoform P01116-2 G12S): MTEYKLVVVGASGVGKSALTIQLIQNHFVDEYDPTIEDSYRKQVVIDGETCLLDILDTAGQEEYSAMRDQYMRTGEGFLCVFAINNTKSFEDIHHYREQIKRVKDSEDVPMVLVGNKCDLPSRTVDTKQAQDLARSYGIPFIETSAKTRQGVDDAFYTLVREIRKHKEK

Row | pIC50 (KRas G12R) | pIC50 (KRas G12V) | pIC50 (KRas G12D) | pIC50 (KRas G12S) | pIC50 (KRas G12C) | IC50 (KRas G13D) [nM] | IC50 (KRas Q61H) [nM] | pIC50 (KRas G12A) | pIC50 (KRas WT) | Structure (SMILES) | IC50 [1] [nM] | IC50 ([2]; Homo sapiens, NCI-H727, 3 h) [nM] | IC50 [3] [nM] | IC50 [4] [nM] | IC50 ([5]; Homo sapiens, ASPC1, 3 h) [nM] | IC50 ([6]; Homo sapiens, NCI-H460, 3 h) [nM] | IC50 [7] [nM] | IC50 [8] [nM] | IC50 [2] [nM] | IC50 [5] [nM] | IC50 [6] [nM]
1 | – | – | – | – | – | – | – | – | – | CCc1c(F)ccc2cc(O)cc(-c3ncc4c(NCc5c[nH]c6ncccc56)nc(OC[C@@]56CCCN5C[C@H](F)C6)nc4c3F)c12 [62.] | 410 | 178 | 24 | ≥ 10000 | 591 | 154 | 7 | 87 | – | – | –
2 | 7.62 | 7.70 | 8.05 | – | – | – | – | – | – | C#Cc1c(F)ccc2cccc(-c3ncc4c(N5CCCC6(CNC(=O)C6)C5)nc(OC[C@@]56CCCN5C[C@H](F)C6)nc4c3F)c12 (stereo partly drawn) [Example 36, 7-(7-(8-ethynyl-7-fluoronaphthalen-1-yl)-8-fluoro-2-(((2R,7aS)-2-fluorohexahydro-1H-pyrrolizin-7a-yl)methoxy)pyrido[4,3-d]pyrimidin-4-yl)-2,7-diazaspiro[4.5]decan-3-one] | 1610 | 3390 | 1130 | ≥ 10000 | 1540 | 557 | 1180 | 2150 | – | – | –
3 | ≥ 8.70 | ≥ 8.70 | ≥ 8.70 | – | – | – | – | – | – | CCc1c(F)ccc2cc(O)cc(-c3ncc4c(N5CCCC6(CNC(=O)C6)C5)nc(OC[C@@]56CCCN5C[C@H](F)C6)nc4c3F)c12 (stereo partly drawn) [Example 38] | 814 | 1190 | 324 | 7620 | 966 | 573 | 143 | 3270 | – | – | –
4 | ≥ 8.70 | ≥ 8.70 | ≥ 8.70 | – | – | – | – | – | – | CCc1c(F)ccc2cc(O)cc(-c3ncc4c(N5C[C@H](O)C[C@@H](O)C5)nc(OC[C@@]56CCCN5C[C@H](F)C6)nc4c3F)c12 [Example 59] | 1270 | – | 176 | ≥ 10000 | – | – | 107 | 3560 | 769 | 577 | 296
5 | ≥ 8.70 | ≥ 8.70 | ≥ 8.70 | – | – | – | – | – | – | CCc1c(F)ccc2cc(O)cc(-c3ncc4c(NCC5CNC(=O)C5)nc(OC[C@@]56CCCN5C[C@H](F)C6)nc4c3F)c12 (stereo partly drawn) [Example 60] | 3600 | 1260 | 389 | ≥ 10000 | 3890 | 1030 | 230 | 5530 | – | – | –
6 | ≥ 8.70 | ≥ 8.70 | 8.30 | – | – | – | – | – | – | CCc1c(F)ccc2cc(O)cc(-c3ncc4c(N5CCC6(CC5)CC(=O)N6)nc(OC[C@@]56CCCN5C[C@H](F)C6)nc4c3F)c12 [Example 73] | 128 | 756 | 98 | ≥ 10000 | 3490 | 176 | 23 | 191 | – | – | –
7 | – | – | – | – | – | – | – | – | – | CCc1c(F)ccc2cc(O)cc(-c3ncc4c(N5CC(n6ccnc6)C5)nc(OC[C@@]56CCCN5C[C@H](F)C6)nc4c3F)c12 [Example 134, 4-(4-(3-(1H-imidazol-1-yl)azetidin-1-yl)-8-fluoro-2-(((2R,7aS)-2-fluorohexahydro-1H-pyrrolizin-7a-yl)methoxy)pyrido[4,3-d]pyrimidin-7-yl)-5-ethyl-6-fluoronaphthalen-2-ol] | ≥ 10000 | ≥ 10000 | 48 | ≥ 10000 | ≥ 10000 | 666 | 178 | 1490 | – | – | –
8 | 8.52 | 8.52 | 7.51 | – | – | – | – | – | – | CCc1c(F)ccc2cc(O)cc(-c3ncc4c(NCCCc5cc[nH]n5)nc(OC[C@@]56CCCN5C[C@H](F)C6)nc4c3F)c12 [Example 135, 4-(4-((3-(1H-pyrazol-3-yl)propyl)amino)-8-fluoro-2-(((2R,7aS)-2-fluorohexahydro-1H-pyrrolizin-7a-yl)methoxy)pyrido[4,3-d]pyrimidin-7-yl)-5-ethyl-6-fluoronaphthalen-2-ol] | 3270 | ≥ 10000 | 37 | ≥ 10000 | 2060 | 647 | 53 | 2460 | – | – | –
9 | 8.52 | ≥ 8.70 | ≥ 8.70 | – | – | – | – | – | – | Oc1cc(-c2ncc3c(N4CCCC(c5ncn[nH]5)C4)nc(OCC45CCCN4CCC5)nc3c2F)c2c(F)c(F)ccc2c1 (stereo not drawn) [Example 137, 4-(4-(3-(1H-1,2,4-triazol-5-yl)piperidin-1-yl)-8-fluoro-2-((hexahydro-1H-pyrrolizin-7a-yl)methoxy)pyrido[4,3-d]pyrimidin-7-yl)-5,6-difluoronaphthalen-2-ol] | ≥ 10000 | ≥ 10000 | 2040 | ≥ 10000 | ≥ 10000 | ≥ 10000 | ≥ 10000 | ≥ 10000 | – | – | –
10 | 7.18 | 7.55 | 7.48 | 7.37 | 7.37 | 34 | 53 | 7.38 | 7.27 | C[C@@]1(O)CCCN(c2nc(OC[C@@]34CCCN3C[C@H](F)C4)nc3c(F)c(-c4c5ccccc5cc5[nH]ncc45)ncc23)C1 [Example 154, (3R)-1-(7-(1H-benzo[f]indazol-4-yl)-8-fluoro-2-(((2R,7aS)-2-fluorohexahydro-1H-pyrrolizin-7a-yl)methoxy)pyrido[4,3-d]pyrimidin-4-yl)-3-methylpiperidin-3-ol] | 1460 | ≥ 10000 | 840 | ≥ 10000 | – | – | – | 8450 | – | – | –
11 | ≥ 8.70 | ≥ 8.70 | 8.30 | – | – | – | – | – | – | CCc1c(F)ccc2cc(O)cc(-c3ncc4c(NC5CS(=O)(=O)C5)nc(OC[C@@]56CCCN5C[C@H](F)C6)nc4c3F)c12 [Example 168] | 821 | 1800 | 156 | ≥ 10000 | – | – | – | ≥ 10000 | – | – | –
12 | ≥ 8.70 | ≥ 8.70 | ≥ 8.70 | – | – | – | – | – | – | CCc1c(F)ccc2cc(O)cc(-c3ncc4c(N5CCCC(CS(N)(=O)=O)C5)nc(OC[C@@]56CCCN5C[C@H](F)C6)nc4c3F)c12 (stereo partly drawn) [Example 170] | 2350 | 3400 | 470 | ≥ 10000 | – | – | – | ≥ 10000 | – | – | –
13 | 8.05 | 8.52 | 7.05 | – | – | – | – | – | – | CCc1c(F)ccc2cc(O)cc(-c3ncc4c(Nc5ccc6cn[nH]c6c5)nc(OC[C@@]56CCCN5C[C@H](F)C6)nc4c3F)c12 [Example 171, 4-(4-((1H-indazol-6-yl)amino)-8-fluoro-2-(((2R,7aS)-2-fluorohexahydro-1H-pyrrolizin-7a-yl)methoxy)pyrido[4,3-d]pyrimidin-7-yl)-5-ethyl-6-fluoronaphthalen-2-ol] | ≥ 10000 | ≥ 10000 | ≥ 10000 | ≥ 10000 | – | – | – | ≥ 10000 | – | – | –
14 | 7.89 | 8.40 | 7.05 | – | – | – | – | – | – | CCc1c(F)ccc2cc(O)cc(-c3ncc4c(Nc5ccc6cnn(C)c6c5)nc(OC[C@@]56CCCN5C[C@H](F)C6)nc4c3F)c12 [Example 174, 5-ethyl-6-fluoro-4-(8-fluoro-2-(((2R,7aS)-2-fluorohexahydro-1H-pyrrolizin-7a-yl)methoxy)-4-((1-methyl-1H-indazol-6-yl)amino)pyrido[4,3-d]pyrimidin-7-yl)naphthalen-2-ol] | ≥ 10000 | ≥ 10000 | 1290 | ≥ 10000 | – | – | – | 4950 | – | – | –
15 | ≥ 8.70 | ≥ 8.70 | 8.52 | – | – | – | – | – | – | CCc1c(F)ccc2cc(O)cc(-c3ncc4c(NCC5CS(=O)(=O)C5)nc(OC[C@@]56CCCN5C[C@H](F)C6)nc4c3F)c12 [Example 177] | 1700 | ≥ 10000 | 54 | ≥ 10000 | – | – | – | 764 | – | – | –
